“Also recorded” adds a separate entry of the source.
Key:
Assay type in all cases: cell-based
fibroblast cells = assay: Fibroblast cell proliferation; settings: for cell proliferation: fibroblasts
Method: For completeness, the relationship between a saccharide (dextrose) and TGF-β was also examined. Fibroblasts were treated with varying amounts of dextrose and measured for the release of TGF-β. […] It appeared that 0.5% glucose provided the greatest proliferation of fibroblasts.

[1] = tested on: bovine cartilage explants; assay: Matrix synthesis (35S uptake) in bovine cartilage explants
[2] = tested on: bovine cartilage explants; assay: Mucopolysaccharide production (35 Sulfur uptake) in bovine cartilage explants
Method: Bovine cartilage explants were placed in culture including 10% FCS and Vitamin C. IL-1 was added to a test population and IL-1 was not added to control. Explants were cultured for 24 hours. Kuromanin chloride was then added to each culture. Mucopolysaccharides were measured using radioactive 35 Sulfur uptake.

With `O=C[C@H](O)[C@@H](O)[C@H](O)[C@H](O)CO` [glucose] the “concentration providing the greatest proliferation of fibroblasts” value (fibroblast cells) was 0.5%, the cell proliferation (fibroblast cells; higher concentrations of glucose) was “did not” and the cell proliferation (fibroblast cells; lower concentrations of glucose) was “increased cell proliferation”.

For `Oc1cc(O)c2cc(O)c(-c3ccc(O)c(O)c3)[o+]c2c1` [Cyanidin chloride], the “chondroprotective activity, greater than under low glucose” value ([1]; higher glucose conditions (5%) as printed) was ~20% and the chondroprotective activity ([1]; low glucose levels (2.5%) as printed) was “some chondroprotective activity”.

For `OC[C@H]1O[C@@H](Oc2cc3c(O)cc(O)cc3[o+]c2-c2ccc(O)c(O)c2)[C@H](O)[C@@H](O)[C@@H]1O.[Cl-]` [Kuromanin chloride], the production of mucopolysaccharides ([2]; bovine cartilage preincubated with IL-1) was “increased production of mucopolysaccharides; also recorded: increase of mucopolysaccharide”, the production of mucopolysaccharides ([2]; control bovine cartilage explants, no IL-1, listed as kuromanin) was “increase of mucopolysaccharide” and the production of mucopolysaccharides ([2]; control bovine cartilage explants, no IL-1, listed as kuromanin chloride) was “increased production of mucopolysaccharides”.
